Results reported in patent publication US8877769B2, “Heteroaryl-substituted urea modulators of fatty acid amide hydrolase” (Janssen Pharmaceutica NV, priority 2008, dated 2014).

Columns and labels:
Rat FAAH = biological target: T1, Rat FAAH (Rattus norvegicus, UniProt P97612); assay: Assay Method 2: FAAH assay, 3H-anandamide hydrolysis in cell homogenate; format: biochemical; conditions: average of results obtained, > value = solubility limit or highest concentration tested
T1 construct: expressed in transfected cells
T1 sequence (P97612 1-579): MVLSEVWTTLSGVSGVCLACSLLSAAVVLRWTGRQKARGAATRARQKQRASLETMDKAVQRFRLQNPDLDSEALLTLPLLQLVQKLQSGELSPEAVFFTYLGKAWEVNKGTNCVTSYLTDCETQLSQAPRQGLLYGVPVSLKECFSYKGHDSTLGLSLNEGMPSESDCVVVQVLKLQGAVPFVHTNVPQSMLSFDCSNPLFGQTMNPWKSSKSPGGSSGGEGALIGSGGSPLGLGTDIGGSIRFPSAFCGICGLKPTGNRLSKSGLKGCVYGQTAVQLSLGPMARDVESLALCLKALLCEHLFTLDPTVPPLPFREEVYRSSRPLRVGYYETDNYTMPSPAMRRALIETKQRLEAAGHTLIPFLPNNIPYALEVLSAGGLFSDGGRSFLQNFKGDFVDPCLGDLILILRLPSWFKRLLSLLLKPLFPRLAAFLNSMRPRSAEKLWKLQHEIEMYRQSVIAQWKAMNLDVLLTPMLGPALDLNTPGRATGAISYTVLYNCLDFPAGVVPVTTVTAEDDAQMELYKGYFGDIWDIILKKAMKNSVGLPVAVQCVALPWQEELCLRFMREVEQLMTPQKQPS
Procedure: A. Transfection of Cells with Rat FAAH
The assay mixture consisted of 50 μL of the cell homogenate, 10 μL of the test compound, and 40 μL of anandamide [1-^3H-ethanolamine] (^3H-AEA, Perkin-Elmer, 10.3 Ci/mmol), which was added last, for a final tracer concentration of 80 nM. The reaction mixture was incubated at rt for 1 h. During the incubation, 96-well Multiscreen filter plates (catalog number MAFCNOB50; Millipore, Bedford, Mass., USA) were loaded with 25 μL of activated charcoal (Multiscreen column loader, catalog number MACL09625, Millipore) and washed once with 100 μL of MeOH. […] After the 1 h incubation, 60 μL of the reaction mixture were transferred to the charcoal plates, which were then assembled on top of the DYNEX plates using Centrifuge Alignment Frames (catalog number MACF09604, Millipore). The unbound labeled ethanolamine was centrifuged through to the bottom plate (5 min at 2000 rpm), which was preloaded with the scintillant, as described above. The plates were sealed and left at rt for 1 h before counting on a Hewlett Packard TopCount.

FAAH = biological target: T2, FAAH (Homo sapiens, UniProt O00519); assay: Assay Method 1: FAAH assay, 3H-anandamide hydrolysis in cell homogenate
T2 sequence (O00519 1-579): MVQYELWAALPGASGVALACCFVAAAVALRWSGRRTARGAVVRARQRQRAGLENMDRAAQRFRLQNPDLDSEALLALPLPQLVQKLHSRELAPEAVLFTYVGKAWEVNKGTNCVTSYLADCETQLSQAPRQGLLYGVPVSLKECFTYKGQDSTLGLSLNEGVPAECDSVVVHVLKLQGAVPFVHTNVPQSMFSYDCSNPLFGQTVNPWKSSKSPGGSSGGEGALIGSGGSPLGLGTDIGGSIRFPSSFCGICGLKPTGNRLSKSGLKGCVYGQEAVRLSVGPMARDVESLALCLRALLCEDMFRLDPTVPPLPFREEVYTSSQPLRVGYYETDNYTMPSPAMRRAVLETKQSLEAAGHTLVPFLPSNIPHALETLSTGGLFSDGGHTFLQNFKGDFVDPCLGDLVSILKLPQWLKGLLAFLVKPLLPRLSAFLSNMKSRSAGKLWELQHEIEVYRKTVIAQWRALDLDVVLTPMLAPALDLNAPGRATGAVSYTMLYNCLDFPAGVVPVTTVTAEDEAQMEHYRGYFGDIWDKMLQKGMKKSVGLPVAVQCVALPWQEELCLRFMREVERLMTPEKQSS
Procedure: The assay mixture consisted of 50 μL of the cell homogenate, 10 μL of the test compound, and 40 μL of anandamide [1-^3H-ethanolamine] (^3H-AEA, Perkin-Elmer, 10.3 Ci/mmol), which was added last, for a final tracer concentration of 80 nM. The reaction mixture was incubated at rt for 1 h. During the incubation, 96-well Multiscreen filter plates (catalog number MAFCNOB50; Millipore, Bedford, Mass., USA) were loaded with 25 μL of activated charcoal (Multiscreen column loader, catalog number MACL09625, Millipore) and washed once with 100 μL of MeOH. […] After the 1 h incubation, 60 μL of the reaction mixture were transferred to the charcoal plates, which were then assembled on top of the DYNEX plates using Centrifuge Alignment Frames (catalog number MACF09604, Millipore). The unbound labeled ethanolamine was centrifuged through to the bottom plate (5 min at 2000 rpm), which was preloaded with the scintillant, as described above. The plates were sealed and left at rt for 1 h before counting on a Hewlett Packard TopCount. • Assay Method 2

Structure (SMILES)	IC50 (Rat FAAH)	IC50 (FAAH)
O=C(Nc1nc2ccccc2o1)N1CCN(Cc2ccc3c(c2)OC(F)(F)O3)CC1 [Example 68, 4-(2,2-Difluoro-benzo[1,3]dioxol-5-ylmethyl)-piperazine-1-carboxylic acid benzooxazol-2-ylamide]	> 10000 nM	> 10000 nM
O=C(Nc1noc2ncccc12)N1CCN(Cc2cccc(OCc3ccccc3)c2)CC1 [Example 21, 4-(3-Benzyloxy-benzyl)-piperazine-1-carboxylic acid isoxazolo[5,4-b]pyridin-3-ylamide]	> 10000 nM	2000 nM
O=C(Nc1noc2ncccc12)N1CCN(Cc2cccc(Oc3cccc(C(F)(F)F)c3)c2)CC1 [Example 15, 4-[3-(3-Trifluoromethyl-phenoxy)-benzyl]-piperazine-1-carboxylic acid isoxazolo[5,4-b]pyridin-3-ylamide]	860 nM	300 nM
O=C(Nc1cn2ccccc2n1)N1CCN(Cc2ccc(OC(F)(F)F)c(Cl)c2)CC1 [Example 56, 4-(3-Chloro-4-trifluoromethoxy-benzyl)-piperazine-1-carboxylic acid imidazo[1,2-a]pyridin-2-ylamide]	> 10000 nM	> 10000 nM
O=C(Nc1noc2ncccc12)N1CCN(Cc2cccc(Oc3ccc4c(c3)OC(F)(F)O4)c2)CC1 [Example 34, 4-[3-(2,2-Difluoro-benzo[1,3]dioxol-5-yloxy)-benzyl]-piperazine-1-carboxylic acid isoxazolo[5,4-b]pyridin-3-ylamide]	> 400 nM	> 60 nM
O=C(Nc1ccc2ncoc2c1)N1CCN(Cc2cccc(Oc3ccc(Cl)cc3)c2)CC1 [Example 46, 4-[3-(4-Chloro-phenoxy)-benzyl]-piperazine-1-carboxylic acid benzooxazol-6-ylamide]	7000 nM	27 nM
N#Cc1ccc(Oc2cccc(CN3CCN(C(=O)Nc4noc5ncccc45)CC3)c2)cc1C(F)(F)F [Example 19, 4-[3-(4-Cyano-3-trifluoromethyl-phenoxy)-benzyl]-piperazine-1-carboxylic acid isoxazolo[5,4-b]pyridin-3-ylamide]	> 10000 nM	> 10000 nM
O=C(Nc1noc2ncccc12)N1CCN(Cc2cc3ccccc3s2)CC1 [Example 28, 4-Benzo[b]thiophen-2-ylmethyl-piperazine-1-carboxylic acid isoxazolo[5,4-b]pyridin-3-ylamide]	> 10000 nM	6000 nM
O=C(Nc1ccc2nccn2c1)N1CCN(Cc2ccc3c(c2)OC(F)(F)O3)CC1 [Example 51, 4-(2,2-Difluoro-benzo[1,3]dioxol-5-ylmethyl)-piperazine-1-carboxylic acid imidazo[1,2-a]pyridin-6-ylamide]	> 10000 nM	> 10000 nM
O=C(Nc1noc2ncccc12)N1CCN(Cc2ccc3cc[nH]c3c2)CC1 [Example 9]	> 10000 nM	> 10000 nM
O=C(Nc1nc2ccccc2o1)N1CCN(Cc2ccc(OC(F)(F)F)c(Cl)c2)CC1 [Example 67, 4-(3-Chloro-4-trifluoromethoxy-benzyl)-piperazine-1-carboxylic acid benzooxazol-2-ylamide]	> 10000 nM	> 10000 nM
O=C(Nc1noc2ncccc12)N1CCN(Cc2ccc(Br)c(Br)c2)CC1 [Example 25, 4-(3,4-Dibromo-benzyl)-piperazine-1-carboxylic acid isoxazolo[5,4-b]pyridin-3-ylamide]	3000 nM	370 nM
O=C(Nc1noc2ncccc12)N1CCN(Cc2cccc(Oc3ccc4ncccc4c3)c2)CC1 [Example 18, 4-[3-(Quinolin-6-yloxy)-benzyl]-piperazine-1-carboxylic acid isoxazolo[5,4-b]pyridin-3-ylamide]	> 10000 nM	6000 nM
O=C(Nc1noc2ncccc12)N1CCN(Cc2cccc(Oc3ccccc3Cl)c2)CC1 [Example 8, 4-[3-(2-Chloro-phenoxy)-benzyl]-piperazine-1-carboxylic acid isoxazolo[5,4-b]pyridin-3-ylamide]	8000 nM	1500 nM
N#Cc1ccnc(Oc2cccc(CN3CCN(C(=O)Nc4cnc5[nH]ccc5c4)CC3)c2)c1 [Example 78, 4-[3-(4-Cyano-pyridin-2-yloxy)-benzyl]-piperazine-1-carboxylic acid (1H-pyrrolo[2,3-b]pyridin-5-yl)-amide]	5000 nM	84 nM

Further compounds by falling IC50 (Rat FAAH), results first:

IC50 (Rat FAAH)	IC50 (FAAH)	Structure (SMILES)
800 nM	900 nM	O=C(Nc1cnc2ccccn12)N1CCC(Cc2ccc(Cl)c(Cl)c2)CC1 [Example 82, 4-(3,4-Dichlorobenzyl)-N-imidazo[1,2-a]pyridin-3-ylpiperidine-1-carboxamide]
430 nM	340 nM	O=C(Nc1noc2ncccc12)N1CCN(Cc2cccc(Oc3ccc(C(F)(F)F)cc3)c2)CC1 [Example 30, 4-[3-(4-Trifluoromethyl-phenoxy)-benzyl]-piperazine-1-carboxylic acid isoxazolo[5,4-b]pyridin-3-ylamide]
270 nM	22 nM	N#Cc1ccc(Oc2cccc(CN3CCN(C(=O)Nc4cnc5[nH]ccc5c4)CC3)c2)nc1 [Example 79, 4-[3-(5-Cyano-pyridin-2-yloxy)-benzyl]-piperazine-1-carboxylic acid (1H-pyrrolo[2,3-b]pyridin-5-yl)-amide]
220 nM	2000 nM	O=C(Nc1noc2cccnc12)N1CCN(Cc2ccc3c(c2)OC(F)(F)O3)CC1 [Example 42, 4-(2,2-Difluoro-benzo[1,3]dioxol-5-ylmethyl)-piperazine-1-carboxylic acid isoxazolo[4,5-b]pyridin-3-ylamide]
200 nM	200 nM	O=C(Nc1noc2ncccc12)N1CCN(Cc2cccc(Oc3ccc(OCC(F)(F)F)cc3)c2)CC1 [Example 33, 4-{3-[4-(2,2,2-Trifluoro-ethoxy)-phenoxy]-benzyl}-piperazine-1-carboxylic acid isoxazolo[5,4-b]pyridin-3-ylamide]
180 nM	470 nM	O=C(Nc1noc2ncccc12)N1CCN(Cc2cccc(Oc3ccc(SC(F)(F)F)cc3)c2)CC1 [Example 17, 4-[3-(4-Trifluoromethylsulfanyl-phenoxy)-benzyl]-piperazine-1-carboxylic acid isoxazolo[5,4-b]pyridin-3-ylamide]
160 nM	230 nM	O=C(Nc1cnc2cccnn12)N1CCN(Cc2ccc3c(c2)OC(F)(F)O3)CC1 [Example 3, 4-(2,2-Difluoro-benzo[1,3]dioxol-5-ylmethyl)-piperazine-1-carboxylic acid imidazo[1,2-b]pyridazin-3-ylamide]
140 nM	140 nM	O=C(Nc1cccc2nccn12)N1CCN(Cc2ccc3c(c2)OC(F)(F)O3)CC1 [Example 71, 4-(2,2-Difluoro-benzo[1,3]dioxol-5-ylmethyl)-piperazine-1-carboxylic acid imidazo[1,2-a]pyridin-5-ylamide]
120 nM	1300 nM	O=C(Nc1cccn2ccnc12)N1CCN(Cc2ccc(OC(F)(F)F)c(Cl)c2)CC1 [Example 53, 4-(3-Chloro-4-trifluoromethoxy-benzyl)-piperazine-1-carboxylic acid imidazo[1,2-a]pyridin-8-ylamide]
110 nM	62 nM	O=C(Nc1cnc2cccnn12)N1CCN(Cc2ccc(Cl)c(Cl)c2)CC1 [Example 2, 4-(3,4-Dichloro-benzyl)-piperazine-1-carboxylic acid imidazo[1,2-b]pyridazin-3-ylamide]
38 nM	67 nM	O=C(Nc1cccc2nccn12)N1CCN(Cc2ccc(OC(F)(F)F)c(Cl)c2)CC1 [Example 70, 4-(3-Chloro-4-trifluoromethoxy-benzyl)-piperazine-1-carboxylic acid imidazo[1,2-a]pyridin-5-ylamide]
